Entries after “also recorded” stand apart in the source; their conditions may differ.
Columns and labels:
[1] = Evaluation of cool feeling intensity (EC50, with reference to NPL 6); assay type: cell-based; settings: index of the cool feeling intensity; read-out: EC50 (concentration at which a cool feeling is felt)
Protocol: The measurement of the cool feeling intensity was performed with reference to NPL 6. A concentration EC50 at which a cool feeling is felt is shown below as the index of the cool feeling intensity.

[2] = Sensory evaluation of aqueous solutions against comparative compounds; assay type: in vivo; settings: for cool feeling characteristic: rac-14a-38 vs Comparative Compound 1 (Evercool 180); for course / persistence of cool feeling intensity / start of cool feeling / taste and accompanying sensations (umami, salty, bitterness, numbness, fiery feeling): vs Comparative Compound 3
Protocol: Sensory Evaluation was performed by comparison with Comparative Compound 1 (Evercool 180), which has a strong cool feeling among conventionally known compounds, and has a similar structure. Each of Exemplary Compound rac-14a-38 and Comparative Compound 1 was prepared as a 2 ppm aqueous solution, and the evaluation was performed.
Sensory Evaluation was performed by comparison with Comparative Compound 2, which is conventionally known, and has a similar structure. Each of Exemplary Compound rac-14a-23 and Comparative Compound 2 was prepared as a 30 ppm aqueous solution, and the evaluation was performed.
Sensory Evaluation was performed by comparison with Comparative Compound 3, which is conventionally known, and has a similar structure. Each of Exemplary Compound rac-14a-34 and Comparative Compound 3 was prepared as a 30 ppm aqueous solution, and the evaluation was performed.
Sensory Evaluation was performed by comparison with Comparative Compound 3, which is conventionally known, and has a similar structure. Each of Exemplary Compound rac-14a-40 and Comparative Compound 3 was prepared as a 30 ppm aqueous solution, and the evaluation was performed.
Sensory Evaluation was performed by comparison with Comparative Compound 3 which is conventionally known. Each of Exemplary Compound rac-14a-46 and Comparative Compound 3 was prepared as a 30 ppm aqueous solution, and the evaluation was performed.
Sensory Evaluation was performed by comparison with Comparative Compound 3 which is conventionally known. Each of Exemplary Compound rac-14a-41 and Comparative Compound 3 was prepared as a 30 ppm aqueous solution, and the evaluation was performed.
Sensory Evaluation was performed by comparison with Comparative Compound 3 which is conventionally known. Each of Exemplary Compound rac-14a-47 and Comparative Compound 3 was prepared as a 30 ppm aqueous solution, and the evaluation was performed.

[3] = 30 ppm aqueous solution, vs Comparative Compound 2

Row | Compound | EC50 [1] [nM] | melting point [°C] | other results
1 | COC(=O)c1cccc(NC(=O)C2CC(C)(C)CCC2C(C)C)c1 (racemic) [rac-14a-44, methyl 3-(2-isopropyl-5,5-dimethylcyclohexanecarboxamide) benzoate] | 5240 | – | –
2 | CC(C)C1CCC(C)(C)CC12OCC(CO)O2 (racemic) [(1R,2S)-19a-1, (6-isopropyl-9,9-dimethyl-1,4-dioxaspiro[4.5]decan-2-yl)methanol] | 32400 | – | –
3 | CC(C)[C@@H]1CC[C@@H](C)C[C@H]1C(=O)Nc1ccc(CC#N)cc1 [Evercool 180, reference compound] | – | – | cool feeling characteristic ([2]; 2 ppm aqueous solution): menthol-like characteristic
4 | CC(C)[C@@H]1CCC(C)(C)C[C@H]1OC(=O)[C@H](C)O (racemic) [rac-17a-2, (S)-(trans-2-isopropyl-5,5-dimethylcyclohexyl)2-hydroxypropanoate] | 64700 | – | –
5 | COC(=O)c1ccc(NC(=O)C2CC(C)(C)CCC2C(C)C)c(C)c1 (racemic) [rac-14a-46, methyl 4-(2-isopropyl-5,5-dimethylcyclohexanecarboxamide)-3-methylbenzoate] | 1500 | – | course / persistence of cool feeling intensity ([2]; 30 ppm aqueous solution): the cool feeling intensity persisted; start of cool feeling ([2]; 30 ppm aqueous solution): the start was late; taste and accompanying sensations (umami, salty, bitterness, numbness, fiery feeling) ([2]; 30 ppm aqueous solution): clear and light touch characteristic of an ester
6 | COc1ccc(NC(=O)C2CC(C)(C)CCC2C(C)C)cc1O (racemic) [rac-14a-41, N-(3-hydroxy-4-methoxyphenyl)-2-isopropyl-5,5-dimethylcyclohexanecarboxamide] | 27 | 93 to 98 | course / persistence of cool feeling intensity ([2]; 30 ppm aqueous solution): also has persistence; start of cool feeling ([2]; 30 ppm aqueous solution): slightly earlier than Comparative Compound 3; taste and accompanying sensations (umami, salty, bitterness, numbness, fiery feeling) ([2]; 30 ppm aqueous solution): Chemical-like bitterness was somewhat felt as a first taste; also recorded: accompanied by a clear feeling than a fiery feeling
7 | COC(=O)c1ccc(NC(=O)C2CC(C)(C)CCC2C(C)C)cc1 (racemic) [rac-14a-45, methyl 4-(2-isopropyl-5,5-dimethylcyclohexanecarboxamide) benzoate] | 3530 | – | –
8 | CC(C)C1CCC(C)(C)CC1C(N)=O (stereo not shown) [14a-50, 2-isopropyl-5,5-dimethylcyclohexanecarboxamide] | 15500 | 141 to 145 | –
9 | CC(C)[C@@H]1CCC(C)(C)C[C@H]1OC(=O)[C@H](C)O [(1R,2S)-17a-2, (S)-((1R,2S)-2-isopropyl-5,5-dimethylcyclohexyl)2-hydroxypropanoate] | 78500 | – | –
10 | CC(C)C1CCC(C)(C)CC1C(=O)Nc1ccc(CC#N)cc1 (racemic) [rac-14a-38, N-(4-(cyanomethyl)phenyl)-2-isopropyl-5,5-dimethylcyclohexanecarboxamide] | 240 | 121 to 122 | lapse until cool feeling exhibited after put in the mouth ([2]; 2 ppm aqueous solution): 1 minute to several minutes; persistence of cool feeling ([2]; 2 ppm aqueous solution): ≥ 30 min; cool feeling characteristic ([2]; 2 ppm aqueous solution): more natural than that of Comparative Compound 1; also recorded: only a cool feeling was felt; also recorded: sharper than that of Comparative Compound 1
11 | CC(C)C1CCC(C)(C)CC1C(=O)Nc1ccc(CO)cc1 (racemic) [rac-14a-47, N-(4-(hydroxymethyl)phenyl)-2-isopropyl-5,5-dimethylcyclohexanecarboxamide] | 48 | 165 to 172 | course / persistence of cool feeling intensity ([2]; 30 ppm aqueous solution): also has persistence; start of cool feeling ([2]; 30 ppm aqueous solution): early start of a cool feeling; taste and accompanying sensations (umami, salty, bitterness, numbness, fiery feeling) ([2]; 30 ppm aqueous solution): stronger umami was felt than that in Comparative Compound 3; also recorded: accompanied by a fiery feeling (burning feeling)
12 | COc1ccc(NC(=O)C2CC(C)(C)CCC2C(C)C)c(C)c1 (racemic) [rac-14a-40, 2-isopropyl-N-(4-methoxy-2-methylphenyl)-5,5-dimethylcyclohexanecarboxamide] | 79 | – | taste and accompanying sensations (umami, salty, bitterness, numbness, fiery feeling) ([2]; 30 ppm aqueous solution): stronger and shaper than those of Comparative Compound 3; also recorded: Umami and a numbness feeling were exhibited simultaneously
13 | CCOC(=O)CNC(=O)C1CC(C)(C)CCC1C(C)C (racemic) [rac-14a-23, ethyl 2-(2-isopropyl-5,5-dimethylcyclohexanecarboxamide) acetate] | 490 | 104 to 107 | cool feeling intensity peak [2, 3]: comparable to that of Comparative Compound 2; exhibition of a cool feeling (start) [2, 3]: later than Comparative Compound 2; persistence of cool feeling [2, 3]: superior to that of Comparative Compound 2; sharp cool feeling stimulation [2, 3]: stronger than that in Comparative Compound 2
14 | CC(C)C1CCC(C)(C)CC1C(=O)NCCc1ccccn1 (racemic) [rac-14a-16, 2-isopropyl-5,5-dimethyl-N-(2-(pyridin-2-yl)ethyl)cyclohexanecarboxamide] | 130 | 104 to 107 | –
15 | COc1ccc(NC(=O)C2CC(C)(C)CCC2C(C)C)cc1 (racemic) [rac-14a-34, 2-isopropyl-N-(4-methoxyphenyl)-5,5-dimethylcyclohexanecarboxamide] | 55 | 115 to 118 | course / persistence of cool feeling intensity ([2]; 30 ppm aqueous solution): increased over time; start of cool feeling ([2]; 30 ppm aqueous solution): later than Comparative Compound 3; taste and accompanying sensations (umami, salty, bitterness, numbness, fiery feeling) ([2]; 30 ppm aqueous solution): comparable to that of Comparative Compound 3; also recorded: the secretion of saliva continued
16 | CC(C)[C@H]1CCC(C)(C)C[C@@H]1OC(=O)[C@H](C)O [(1S,2R)-17a-2, (S)-((1S,2R)-2-isopropyl-5,5-dimethylcyclohexyl)2-hydroxypropanoate] | 24500 | – | –
17 | CCNC(=O)C1CC(C)(C)CCC1C(C)C (racemic) [rac-14a-2, N-ethyl-2-isopropyl-5,5-dimethylcyclohexanecarboxamide] | 2270 | 101 to 105 | –
18 | CC(C)[C@@H]1CCC(C)(C)C[C@H]1C(=O)Nc1ccc(CC#N)cc1 [14a-38i, (−)-trans-N-(4-(cyanomethyl)phenyl)-2-isopropyl-5,5-dimethylcyclohexanecarboxamide] | 140 | – | –

From patent publication US20180057447A1, “METHYL MENTHOL DERIVATIVE AND COOLING AGENT COMPOSITION CONTAINING SAME” (TAKASAGO INTERNATIONAL CORPORATION, priority 2015, published 2018)
